Results published in publication PMC7961380, “A Systematic Study of the In Vitro Pharmacokinetics and Estimated Human In Vivo Clearance of Indole and Indazole-3-Carboxamide Synthetic Cannabinoid Receptor Agonists Detected on the Illicit Drug Market” (Molecules, 2021).

Legend:
[1] = tested on: pooled human cryopreserved hepatocytes (pHHeps); assay: Metabolic stability, pooled human cryopreserved hepatocyte incubations; settings: for T1/2: pHHeps 0.25 million cells mL^−1, 0.5 µM, 37 °C, n ≥ 3 ± SD
[2] = Metabolic stability, pooled human liver microsome incubations; settings: for Microsomal Intrinsic Clearance, CLint micr / T1/2: n ≥ 3 ± SD; for T1/2: pHLM 0.5 mg mL^−1, 0.5 µM, NADPH, 37 °C
Description: Total incubation volume was 500 µL. Procedure: Test compound working solutions (50 µM in potassium phosphate buffer (pH 7.4)) were prepared (<1% DMSO). pHLM were thawed and diluted in potassium phosphate buffer (pH 7.4). […] Reactions were quenched in 200 µL ACN spiked with donepezil (IS, 50 ng mL^−1). […] Samples were analysed by UPLC-MS/MS in a 96 deep-well 2 mL plate. Each SCRA was incubated at least in triplicate but additional incubations were carried out across a number of analytical batches, giving greater replication and a greater understanding of system variability. Microsomal scaling factors used for human liver microsome incubations in the literature vary. Intrinsic clearance and predicted in vivo clearance rates calculated using alternative scaling factors found in the literature is provided in Section S6 of the supplementary information, to aid comparison of data between publications.
Equations used for in vitro intrinsic clearance calculation and human in vivo clearance […]
The equations used for in vitro intrinsic clearance calculation and human in vivo clearance estimation […]
Microsomal clearance (HLM incubations) in mL min-1 mg microsomal protein-1 [3]
Intrinsic clearance (whole-liver dimensions) (HLM incubations) in mL min-1 kg-1 [3] CL = k x V x [Liver](g) x SF Eqn. 7 […]
mg g microsomal protein-1 [7]
Intrinsic clearance (whole-liver dimensions) (HHep incubations) in mL min-1 kg-1 [4] CL = k x V x hepatocytes/g liver x [Liver](g) Eqn. 8 […]
Where: hepatocytes/g liver = 107x10^6 cells/g liver
Hepatic clearance in mL min-1 kg-1 [3]
[…] Eqn. 9
Where: Q = hepatic blood flow, 21 mL min-1 kg-1 [9]; fu = fraction unbound (plasma); CLint = […]
Estimated human hepatic extraction ratio [5]
Intrinsic clearance data – pooled human liver microsome incubations […]
table S4-28. Intrinsic clearance and predicted in vivo data calculated using alternative microsomal scaling factors found in the literature – 32 [10] and 45 [11] mg microsomal protein per gram liver – are provided in tables S29 and S30, respectively.

[3] = pHHeps, 99x10^6 hepatocytes per gram liver
[4] = pHLM, scaling factor 32 mg microsomal protein per gram liver
[5] = pHLM, scaling factor 45 mg microsomal protein per gram liver
[6] = pHHeps, alternative hepatocyte cell density 99x10^6 hepatocytes per gram liver
[7] = pHLM, alternative microsomal scaling factor 45 mg microsomal protein per gram liver

Structure (SMILES): O=c1ccc2ccc(O)cc2o1 [7-hydroxycoumarin, reference compound]
- intrinsic clearance rate ([1]; pHHeps positive control, range over batches): 46 to 238 min⁻¹ kg⁻¹
- % parent compound remaining, Average ([1]; pHHeps, 3 min): 98.6%
- % parent compound remaining, Average ([1]; pHHeps, 6 min): 97.5%
- % parent compound remaining, Average ([1]; pHHeps, 9 min): 95.7%
- % parent compound remaining, Average ([1]; pHHeps, 15 min): 90.8%
- % parent compound remaining, Average ([1]; pHHeps, 30 min): 75.8%
- % parent compound remaining, Average ([1]; pHHeps, 45 min): 67.2%
- % parent compound remaining, Average ([1]; pHHeps, 60 min): 55.8%

Structure (SMILES): CC(C)[C@H](NC(=O)c1nn(CC2CCCCC2)c2ccccc12)C(N)=O [(S)-AB-[…] (11)] [N-[1-amino-3-methyl-1-oxobutan-2-yl]-1-(cyclohexylmethyl)-1H-indazole-3-carboxamide]
- Predicted In Vivo Hepatic Clearance, CLH ([1]; from pHHeps CLint, well-stirred model with plasma fu, Q 21 mL min^−1 kg^−1): 4.52 ± 1.12 mL/min/kg
- Hepatic extraction ratio, EH ([1]; from pHHeps incubations): 0.22 ± 0.053
- Hepatic extraction ratio, EH [1, 3]: 0.20 ± 0.051
- Predicted in vivo hepatic clearance, CLH [1, 3]: 4.26 ± 1.08 mL/min/kg
- % parent compound remaining, Average ([1]; pHHeps, 3 min, […]): 96.9%
- % parent compound remaining, Average ([1]; pHHeps, 6 min, […]): 85.7%
- % parent compound remaining, Average ([1]; pHHeps, 9 min, […]): 81.8%
- % parent compound remaining, Average ([1]; pHHeps, 15 min, […]): 88.6%
- % parent compound remaining, Average ([1]; pHHeps, 30 min, […]): 65.5%
- % parent compound remaining, Average ([1]; pHHeps, 45 min, […]): 63.2%
- % parent compound remaining, Average ([1]; pHHeps, 60 min, […]): 53.4%
- Predicted In Vivo Hepatic Clearance, CLH ([2]; from pHLM CLint, well-stirred model with plasma fu, Q 21 mL min^−1 kg^−1): 1.77 ± 0.17 mL/min/kg
- Hepatic extraction ratio, EH ([2]; from pHLM incubations): 0.08 ± 0.008
- % parent compound remaining, Average ([2]; pHLM, 3 min, […]): 76.2%
- % parent compound remaining, Average ([2]; pHLM, 6 min, […]): 76.7%
- % parent compound remaining, Average ([2]; pHLM, 9 min, […]): 70.6%
- % parent compound remaining, Average ([2]; pHLM, 15 min, […]): 61.7%
- % parent compound remaining, Average ([2]; pHLM, 30 min, […]): 45.8%
- Microsomal Intrinsic Clearance, CLint micr ([2]; pHLM): 0.051 ± 0.005 mL min^−1 mg Microsomal Protein^−1
- Hepatic extraction ratio, EH [2, 4]: 0.05 ± 0.005
- Predicted in vivo hepatic clearance, CLH [2, 4]: 1.12 ± 0.11 mL/min/kg
- Hepatic extraction ratio, EH [2, 5]: 0.08 ± 0.007
- Predicted in vivo hepatic clearance, CLH [2, 5]: 1.54 ± 0.15 mL/min/kg

Structure (SMILES): CC(C)[C@@H](NC(=O)c1nn(CC2CCCCC2)c2ccccc12)C(N)=O [(R)-AB-[…] (11)] [N-[1-amino-3-methyl-1-oxobutan-2-yl]-1-(cyclohexylmethyl)-1H-indazole-3-carboxamide]
- T1/2 [1]: 38 ± 8.7 min
- % parent compound remaining, Average ([1]; pHHeps, 3 min, […]): 91.3%
- % parent compound remaining, Average ([1]; pHHeps, 6 min, […]): 89.8%
- % parent compound remaining, Average ([1]; pHHeps, 9 min, […]): 88.6%
- % parent compound remaining, Average ([1]; pHHeps, 15 min, […]): 86.6%
- % parent compound remaining, Average ([1]; pHHeps, 30 min, […]): 73.0%
- % parent compound remaining, Average ([1]; pHHeps, 45 min, […]): 75.2%
- % parent compound remaining, Average ([1]; pHHeps, 60 min, […]): 76.2%
- Intrinsic clearance, CLint [1, 6]: 197 ± 50.3 mL/min/kg
- T1/2 [2]: 43 ± 5.0 min
- % parent compound remaining, Average ([2]; pHLM, 3 min, […]): 84.0%
- % parent compound remaining, Average ([2]; pHLM, 6 min, […]): 84.4%
- % parent compound remaining, Average ([2]; pHLM, 9 min, […]): 82.1%
- % parent compound remaining, Average ([2]; pHLM, 15 min, […]): 73.6%
- % parent compound remaining, Average ([2]; pHLM, 30 min, […]): 59.0%
- Intrinsic clearance, CLint ([2]; pHLM, alternative microsomal scaling factor 32 mg microsomal protein per gram liver): 26.9 mL/min/kg
- Intrinsic clearance, CLint [2, 7]: 37.8 ± 4.19 mL/min/kg
- Microsomal Intrinsic Clearance, CLint micr ([2]; pHLM): 0.033 ± 0.004 mL min^−1 mg Microsomal Protein^−1

Structure (SMILES): CCOc1ccc2ccc(=O)oc2c1 [7-ethoxycoumarin, reference compound]
- % parent compound remaining, Average ([1]; pHHeps, 3 min): 91.4%
- % parent compound remaining, Average ([1]; pHHeps, 6 min): 89.4%
- % parent compound remaining, Average ([1]; pHHeps, 9 min): 80.0%
- % parent compound remaining, Average ([1]; pHHeps, 15 min): 73.7%
- % parent compound remaining, Average ([1]; pHHeps, 30 min): 54.9%
- % parent compound remaining, Average ([1]; pHHeps, 45 min): 40.7%
- % parent compound remaining, Average ([1]; pHHeps, 60 min): 29.0%
- Intrinsic clearance, CLint ([1]; pHHeps, scaled to whole liver, 107x10^6 cells/g liver): 55 to 305 mL/min/kg

Structure (SMILES): COC(=O)C(NC(=O)c1nn(CCCCCF)c2ccccc12)C(C)C (stereo in doubt) [(R)-5F-AMB-PINACA (10), methyl [1-(5-fluoropentyl)-1H-indazole-3-carbonyl]valinate]
- % parent compound remaining, Average ([1]; pHHeps, 3 min): 69.9%
- % parent compound remaining, Average ([1]; pHHeps, 6 min): 35.6%
- % parent compound remaining, Average ([1]; pHHeps, 9 min): 28.2%
- % parent compound remaining, Average ([1]; pHHeps, 15 min): 12.1%
- % parent compound remaining, Average ([1]; pHHeps, 30 min): 3.1%
- % parent compound remaining, Average ([1]; pHHeps, 45 min): 0.9%
- % parent compound remaining, Average ([1]; pHHeps, 60 min): 0.2%
- % parent compound remaining, Average ([2]; pHLM, 3 min): 64.1%
- % parent compound remaining, Average ([2]; pHLM, 6 min): 51.0%
- % parent compound remaining, Average ([2]; pHLM, 9 min): 38.0%
- % parent compound remaining, Average ([2]; pHLM, 15 min): 21.7%
- % parent compound remaining, Average ([2]; pHLM, 30 min): 6.8%
- Microsomal Intrinsic Clearance, CLint micr ([2]; pHLM): 0.213 ± 0.014 mL min^−1 mg Microsomal Protein^−1

Structure (SMILES): COC(=O)C(NC(=O)c1nn(Cc2ccc(F)cc2)c2ccccc12)C(C)C (stereo in doubt) [(R)-AMB-FUBINACA (1), methyl [1-(4-fluorobenzyl)-1H-indazole-3-carbonyl]valinate]
- % parent compound remaining, Average ([1]; pHHeps, 3 min): 41.1%
- % parent compound remaining, Average ([1]; pHHeps, 6 min): 22.5%
- % parent compound remaining, Average ([1]; pHHeps, 9 min): 21.4%
- % parent compound remaining, Average ([1]; pHHeps, 15 min): 12.3%
- % parent compound remaining, Average ([1]; pHHeps, 30 min): 2.7%
- % parent compound remaining, Average ([1]; pHHeps, 45 min): 0.9%
- % parent compound remaining, Average ([1]; pHHeps, 60 min): 0.8%
- % parent compound remaining, Average ([2]; pHLM, 3 min): 57.2%
- % parent compound remaining, Average ([2]; pHLM, 6 min): 46.7%
- % parent compound remaining, Average ([2]; pHLM, 9 min): 34.5%
- % parent compound remaining, Average ([2]; pHLM, 15 min): 20.5%
- % parent compound remaining, Average ([2]; pHLM, 30 min): 6.8%
- Microsomal Intrinsic Clearance, CLint micr ([2]; pHLM): 0.237 ± 0.020 mL min^−1 mg Microsomal Protein^−1

Structure (SMILES): CC(C)[C@@H](NC(=O)c1nn(Cc2ccc(F)cc2)c2ccccc12)C(N)=O [(R)-AB-FUBINACA (8), N-(1-amino-3-methyl-1-oxobutan-2-yl)-1-(4-fluorobenzyl)-1H-indazole-3-carboxamide]
- T1/2 [1]: 69 ± 11 min
- % parent compound remaining, Average ([1]; pHHeps, 3 min): 96.7%
- % parent compound remaining, Average ([1]; pHHeps, 6 min): 86.5%
- % parent compound remaining, Average ([1]; pHHeps, 9 min): 84.9%
- % parent compound remaining, Average ([1]; pHHeps, 15 min): 84.4%
- % parent compound remaining, Average ([1]; pHHeps, 30 min): 75.2%
- % parent compound remaining, Average ([1]; pHHeps, 45 min): 82.9%
- % parent compound remaining, Average ([1]; pHHeps, 60 min): 78.8%
- Intrinsic clearance, CLint [1, 6]: 105 ± 14.6 mL/min/kg
- T1/2 [2]: 145 ± 45 min
- % parent compound remaining, Average ([2]; pHLM, 3 min): 89.5%
- % parent compound remaining, Average ([2]; pHLM, 6 min): 90.5%
- % parent compound remaining, Average ([2]; pHLM, 9 min): 88.4%
- % parent compound remaining, Average ([2]; pHLM, 15 min): 82.9%
- % parent compound remaining, Average ([2]; pHLM, 30 min): 83.9%
- Intrinsic clearance, CLint [2, 7]: 11.8 mL/min/kg
- Microsomal Intrinsic Clearance, CLint micr ([2]; pHLM): 0.010 ± 0.003 mL min^−1 mg Microsomal Protein^−1

Structure (SMILES): COC(=O)C(NC(=O)c1cn(CC2CCCCC2)c2ccccc12)C(C)C (stereo in doubt) [(R)-AMB-CHMICA (9), methyl [1-(cyclohexylmethyl)-1H-indole-3-carbonyl]valinate]
- % parent compound remaining, Average ([1]; pHHeps, 3 min): 62.7%
- % parent compound remaining, Average ([1]; pHHeps, 6 min): 61.2%
- % parent compound remaining, Average ([1]; pHHeps, 9 min): 45.1%
- % parent compound remaining, Average ([1]; pHHeps, 15 min): 26.7%
- % parent compound remaining, Average ([1]; pHHeps, 30 min): 11.8%
- % parent compound remaining, Average ([1]; pHHeps, 45 min): 5.9%
- % parent compound remaining, Average ([1]; pHHeps, 60 min): 3.2%
- % parent compound remaining, Average ([2]; pHLM, 3 min): 73.0%
- % parent compound remaining, Average ([2]; pHLM, 6 min): 53.6%
- % parent compound remaining, Average ([2]; pHLM, 9 min): 47.4%
- % parent compound remaining, Average ([2]; pHLM, 15 min): 30.4%
- % parent compound remaining, Average ([2]; pHLM, 30 min): 11.3%
- Microsomal Intrinsic Clearance, CLint micr ([2]; pHLM): 0.167 ± 0.019 mL min^−1 mg Microsomal Protein^−1
